Measurements published in article PMC12348105, “Pinene-Based Chiral Bipyridine Ligands Drive Potent Antibacterial Activity in Rhenium(I) Complexes” (Molecules, 2025).
In brackets after ≈: the same amount, converted by molar mass.

Assays:
[1] = tested on: methicillin-sensitive S. aureus (MSSA); assay: MIC determination against methicillin-sensitive S. aureus (broth dilution, OD600); format: cell-based, Staphylococcus aureus; settings: 24 h, 37 °C
Method: (§1) The antimicrobial activity of the rhenium tricarbonyl mononuclear complexes and their corresponding pinene-bipyridine ligands was determined against two S. aureus strain: methicillin-resistant S. aureus (MRSA 43300) and methicillin-sensitive S. aureus (MSSA 25923). These microorganisms are responsible for most nosocomial infections. […] Their mechanism of action is not yet fully understood, but we hypothesized that their positive charge allows them to interact more easily with biomolecules than neutral complexes, and/or that they more strongly interact with the negatively charged cellular membrane.
(§2) The antimicrobial activity of the complexes was evaluated against two strains: Staphylococcus aureus SA113 (methicillin-susceptible, MSSA) and S. aureus MecA R2954 (methicillin-resistant, MRSA). Briefly, each complex was initially dissolved in sterile DMSO at a concentration of 10 mM to create a stock solution. The solutions were diluted with Mueller–Hinton Broth (MHB) culture medium and added (serial dilution) to the wells of a 96-well plate at final concentrations ranging from 100 µM to 0.2 µM. Simultaneously, bacterial cultures grown the previous day in non-cation-adjusted MHB (1×) were used to prepare suspensions at 1 × 10^6 CFU/mL. An equal volume (50 µL) of these bacterial suspensions was added to each well containing the diluted complexes, resulting in final bacterial and compound concentrations of 5 × 10^5 CFU/mL and 100 µM to 0.2 µM, respectively. The plates were incubated at 37 °C for 24 h. Minimum inhibitory concentrations (MICs) were determined by measuring optical density at 600 nm (OD600). All experiments were performed in triplicate.

[2] = tested on: L929 mouse fibroblast cells; assay: Cell toxicity, MTT assay; format: cell-based; settings: 24 h treatment
Method: The cytotoxicity of the complexes was evaluated using L929 mouse fibroblast cells cultured in DMEM supplemented with 10% (v/v) fetal bovine serum (FBS), 1% (v/v) penicillin/streptomycin, and L-glutamine. Cytotoxicity was assessed using the standard MTT assay. Briefly, cells were seeded into 96-well plates at a density of 3.75 × 10^4 cells/mL and incubated for 24 h. The complexes, initially dissolved in DMSO, were diluted with culture medium and added to the wells at final concentrations ranging from 100 µM to 0.2 µM. After 24 h of treatment, MTT solution (5 mg/mL in PBS) diluted in fresh medium was added to each well at 25% of the total volume and incubated for an additional 4 h. Formazan crystals formed by metabolically active cells were then solubilized in a 1:1 (v/v) DMSO:ethanol solution. Control wells included untreated cells (100% viability). Relative cell viability was calculated by comparing absorbance values to those of the untreated control.

[3] = tested on: methicillin-resistant S. aureus (MRSA); assay: MIC determination against methicillin-resistant S. aureus (broth dilution, OD600); format: cell-based, Staphylococcus aureus; settings: for MIC: 24 h, 37 °C
Method: as §1, §2

MIC ([1]; Staphylococcus aureus) [µM] | MIC ([3]; Staphylococcus aureus, MRSA) [µM] | Compound | IC50 [2] [µM] | MIC [1] [µM] | MIC ([3]; MRSA) [µM] | further results
3.13 (≈ 0.784 µg/mL) | 3.13 (≈ 0.784 µg/mL) | CC1(C)[C@H]2Cc3cc(-c4ccccn4)ncc3[C@@H]1C2 [4,5-pinbpy, (−)-4,5-pinene bipyridine] | 2.5 to 5 |  |  | 
3.13 (≈ 0.784 µg/mL) | 3.13 (≈ 0.784 µg/mL) | CC1(C)[C@H]2Cc3nc(-c4ccccn4)ccc3[C@@H]1C2 [5,6-pinbpy, (−)-5,6-pinene bipyridine] | 2.5 to 5 |  |  | 
 |  | N#CC(C#N)=NNc1cccc(Cl)c1 [CCCP] |  |  |  | MIC of positive control ([3]; S. aureus, concentration stated as 1× MIC): 12.5 µM
 |  | [Re(CO)3(bpy)(Py)](OTf) |  | 100 | 100 | 
 |  | [Re(CO)3(bpy)Br] |  | >50 | >50 | MIC higher than that of C2Br ([3]; MRSA, same core structure): ~10 fold
